Test results: US20230390298A1, “METHOD AND COMPOSITIONS FOR USE IN PROVIDING MALE CONTRACEPTION” (Eppin Pharma, Inc., priority 2022, published 2023)
Blank lines part the entries; values can stand above or below the molecule they belong to.

Tests used:
[1] = molecular target: T1, recombinant human EPPIN (Homo sapiens, UniProt O95925); test: Epitope ALPHA (AlphaScreen) assay, EPPIN / anti-EPPIN antibody binding; conditions: EPPIN on donor beads, anti-EPPIN antibody on acceptor beads
T1 construct: made in house; host or cells: E. coli strain OrigamiB-DE3-pLysS
T1 sequence (O95925 22-133): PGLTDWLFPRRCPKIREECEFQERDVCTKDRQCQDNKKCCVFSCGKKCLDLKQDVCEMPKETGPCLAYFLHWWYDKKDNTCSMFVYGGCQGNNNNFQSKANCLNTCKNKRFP
Source text: Two assays for high throughput screening (HTS) of compounds have been established and validated. In one embodiment, these assays are based on an adaptation of the AlphaScreen™ assay developed by PerkinElmer (Waltham, MA). In the AlphaScreen™ (amplified luminescent proximity homogeneous assay) assay donor and acceptor beads (˜200 nm) are employed to hold interacting protein molecules. When the interacting protein molecules bind (for example EPPIN {on the donor bead} and anti-EPPIN {on the acceptor bead}), single state oxygen molecules diffuse from the donor bead to the acceptor bead (˜4 μsec) and fluorophores subsequently emit light at 520-620 nm. In the primary compound screen, histidine-tagged recombinant human EPPIN is attached to NTA-donor beads and anti-EPPIN (S21C; against the EPPIN C-terminal domain) is attached to protein A-acceptor beads. This epitope specific assay gives strong and stable binding between EPPIN and the antibody.
Briefly, recombinant histidine-tagged recombinant EPPIN was pre-incubated with Ni-NTA chelate donor beads (catalog number AS101, Perkin Elmer, Waltham MA) and anti-Eppin 007 or anti-Eppin Q20E antibody was pre-incubated with Protein A acceptor beads (catalog number 6760136, Perkin Elmer, Waltham MA) for 30 minutes. Equal volumes of donor and acceptor bead mixtures were pipetted into white opaque 384-well microplates (OptiPlate-384; PerkinElmer, Waltham, MA) in a final volume of 30 μL. Plates were covered with top seal and transferred to a Synergy HTS Multiplatform automated plate reader (Biotek, Winooski, VT). After shaking for 2 min, plates were read with an excitation 680/30 filter, an emission 570/100 filter and data acquired using Gen5 software (Biotek). Each set of samples was pipetted in 4 replicates. The final concentration of assay components was 58 nM EPPIN, 2 nM anti-Eppin 007 or Q20E antibody, 5 μg/ml donor beads and 10 μg/ml acceptor beads in 0.1M Tris pH=8, 0.1% bovine serum albumin and 0.01% Tween-20. Negative controls were performed under the same conditions in the absence of EPPIN or antibody and in the presence of beads only. The antibody 007 used in this assay binds the same epitope that binds the EP055 compound so the two entities compete for binding to EPPIN. Q20E binds the n-terminal part of EPPIN.
Non-specific interactions of compound with assay components were measured at the same time with the IgG detection kit ([…] biotinylated rabbit IgG) to generate the bead interaction: 10 μg/ml donor and acceptor beads. (catalog number 6760617C, Perkin Elmer).
A specific signal for each time point was calculated by subtracting the background signal (obtained in the absence of Eppin) from its respective total signal. EC50 values for the binding of EPPIN to specific compounds were calculated by non-linear regression curve fitting using the specific signal obtained after 16 h of incubation using GraphPad Prism version 6.00 for Windows (GraphPad Software, La Jolla California USA, www.graphpad.com).

[2] = tested on: human sperm motility; test: live sperm computer-assisted sperm analysis (CASA) assay; format: cell-based; conditions: for inhibitory activity in the CASA sperm motility assay: human spermatozoa
Method: In another embodiment, a computer-assisted sperm analysis (CASA) can be used as a live cell compound screen for determining the effect of compounds on human sperm motility. Additionally, to facilitate the EC50 evaluation of compounds using different ejaculates, reducing inter-assay variation due to differences in sperm quality in different semen samples, an index of relative motility inhibition (RMI) was developed. This is calculated as: RMI=[% motility*VSL]; percentage of motile sperm (% motility) or the percentage of progressively motile sperm (% progressive motility, RPMI) multiplied by the straight-line velocity (VSL); the average velocity measured in a straight line from the beginning to the end of a track in μm/sec. Normalized RMI can be calculated by dividing the RMI of each experimental condition by its respective DMSO control.
The live-sperm Computer Assisted Sperm Analysis (CASA) Assays were done as follows.
Human semen samples were obtained from the Department of Obstetrics and Gynecology, University of North Carolina Memorial Hospital, Chapel Hill, NC. […] Semen samples were allowed to liquefy for 30 minutes and subjected to standard semen analysis to determine acceptability before freezing. All samples were stored in liquid nitrogen, and de-identified by the Department of Obstetrics and Gynecology, University of North Carolina Memorial Hospital, Chapel Hill, NC before further processing. A density gradient (SpermCare catalog number 2221 and 2222, InvitroCare Inc., Frederick MD) was used to prepare spermatozoa for further analysis. At least 3 independent experiments were done per assay, each using several pooled samples from a single donor. Briefly sperm were washed after the density gradient with EP buffer-0.4% human serum albumin and resuspended in the same buffer for compound treatments. Sperm were diluted to 5×10^6/mL in 12×75 mm glass tubes with the appropriate treatment and incubated at 37° C. in 5% CO2. For CASA analysis, sperm were loaded onto slides (CellVison 4 chamber (20 μM), catalog number CV-1020-4CV, Fertility Technology Resources, Murphy NC) and warmed to 37° C. before analysis. Videos of sperm motility were collected using a Nikon ECLIPSE TS2-FL inverted microscope with 10× eyepiece and a 10× negative phase contrast objective and a Basler high speed camera (1280×1024 px, 200 fps, USB 3, CMOS). AVI Videos were analyzed using OpenCASA software (version 2). Units for CASA parameters are as follows: VAP (average path velocity), VSL (straight line velocity), and VCL (curvilinear velocity)=μm/sec (microns/sec); ALH (lateral head amplitude)=μm; BCF (beat cross-frequency)=Hz. The relative mobility index (RMI) is a measure of the effect of compound on sperm and is calculated as the VSL x % normal motility and normalized to the appropriate DMSO control.

Molecule: COC(=O)CCSc1cc(NNC(=O)OC)nc(Cc2ccc(NC(C)=O)c(O)c2)n1 [EP100, methyl 3-({2-[(4-acetamido-3-hydroxyphenyl)methyl]-6-{[(methoxycarbonyl)amino]amino}pyrimidin-4-yl}sulfanyl)propanoate]
inhibitory activity in the epitope ALPHA assay [1]: inhibitory activity
inhibitory activity in the CASA sperm motility assay [2]: inhibitory activity

Molecule: COC(=O)CCSc1cc(NNC(=O)OC)cc(Cc2ccc(CC(C)=O)c(O)c2)n1 [EP101, methyl 3-[(6-{[3-hydroxy-4-(2-oxopropyl)phenyl]methyl}-4-{[(methoxycarbonyl)amino]amino}pyridin-2-yl)sulfanyl]propanoate]
inhibitory activity in the epitope ALPHA assay [1]: inhibitory activity
inhibitory activity in the CASA sperm motility assay [2]: inhibitory activity

Molecule: COC(=O)CCSc1nc(NNC(=O)OC)nc(Nc2ccc(NC(C)=O)c(O)c2)n1 [EP082, methyl 3-({4-[(4-acetamido-3-hydroxyphenyl)amino]-6-{[(methoxycarbonyl)amino]amino}-1,3,5-triazin-2-yl}sulfanyl)propanoate]
inhibitory activity in the epitope ALPHA assay [1]: inhibitory activity
inhibitory activity in the CASA sperm motility assay [2]: inhibitory activity

Molecule: COC(=O)NNc1nc(Nc2ccc(NC(C)=O)c(O)c2)nc(SCCC(=O)O)n1 [EP083, 3-((4-((4-acetamido-3-hydroxyphenyl)amino)-6-(2-(methoxycarbonyl)hydrazineyl)-1,3,5-triazin-2-yl)thio)propanoic acid]
inhibitory activity in the epitope ALPHA assay [1]: inhibitory activity
inhibitory activity in the CASA sperm motility assay [2]: inhibitory activity

Molecule: COC(=O)NNc1nc(Nc2ccc(NC(C)=O)c(O)c2)nc(SCCCC(=O)O)n1 [EP096, 4-((4-((4-acetamido-3-hydroxyphenyl)amino)-6-(2(methoxycarbonyl)hydrazineyl)-1,3,5-triazin-2-yl)thio)butanoic acid]
inhibitory activity in the epitope ALPHA assay [1]: inhibitory activity
inhibitory activity in the CASA sperm motility assay [2]: inhibitory activity

Molecule: COC(=O)NNc1nc(Nc2ccc(NC(C)=O)c(O)c2)nc(SCCC(C)=O)n1 [EP091, methyl 2-(4-((4-acetamido-3-hydroxyphenyl)amino)-6-((3-oxobutyl)thio)-1,3,5-triazin-2-yl) hydrazine-1-carboxylate]
inhibitory activity in the epitope ALPHA assay [1]: inhibitory activity
inhibitory activity in the CASA sperm motility assay [2]: inhibitory activity

Molecule: COC(=O)CCCSc1nc(NNC(=O)OC)nc(Nc2ccc(NC(C)=O)c(O)c2)n1 [EP098, methyl 4-({4-[(4-acetamido-3-hydroxyphenyl)amino]-6-{[(methoxycarbonyl)amino]amino}-1,3,5-triazin-2-yl}sulfanyl)butanoate]
inhibitory activity in the epitope ALPHA assay [1]: inhibitory activity
inhibitory activity in the CASA sperm motility assay [2]: inhibitory activity

Further lines, with some results ahead:

inhibitory activity in the epitope ALPHA assay [1]: inhibitory activity
Molecule: CO/N=C/c1ccc(Cc2cc(NNC(=O)OC)cc(SCCC(=O)OC)n2)cc1O [EP103, methyl 3-{[6-({3-hydroxy-4-[(1E)-(methoxyimino)methyl]phenyl}methyl)-4-{[(methoxycarbonyl)amino]amino}pyridin-2-yl]sulfanyl}propanoate]
inhibitory activity in the CASA sperm motility assay [2]: inhibitory activity

inhibitory activity in the epitope ALPHA assay [1]: inhibitory activity
Molecule: CO/N=C/c1ccc(Cc2cc(NNC(=O)OC)cc(SCCC(=O)O)n2)cc1O [EP104, 3-{[6-({3-hydroxy-4-[(1E)-(methoxyimino)methyl]phenyl}methyl)-4-{[(methoxycarbonyl)amino]amino}pyridin-2-yl]sulfanyl}propanoic acid]
inhibitory activity in the CASA sperm motility assay [2]: inhibitory activity

inhibitory activity in the epitope ALPHA assay [1]: inhibitory activity
Molecule: CO/N=C/c1ccc(Cc2nc(NNC(=O)OC)cc(SCCC(=O)OC)n2)cc1O [EP102, methyl 3-{[2-({3-hydroxy-4-[(1E)-(methoxyimino)methyl]phenyl}methyl)-6-{[(methoxycarbonyl)amino]amino}pyrimidin-4-yl]sulfanyl}propanoate]
inhibitory activity in the CASA sperm motility assay [2]: inhibitory activity

EC50 ([2]; inhibiting sperm motility and impairing proper function, read-out: calculated EC50 value for inhibiting sperm motility): 8.8 µM
B1: SEMG1: semenogelin, seminal vesicle protein that binds EPPIN on sperm and inhibits progressive motility (protein, UniProt P04279 24-462, looked up)
Semenogelin-1: QKGGSKGRLPSEFSQFPHGQKGQHYSGQKGKQQTESKGSFSIQYTYHVDANDHDQSRKSQQYDLNALHKTTKSQRHLGGSQQLLHNKQEGRDHDKSKGHFHRVVIHHKGGKAHRGTQNPSQDQGNSPSGKGISSQYSNTEERLWVHGLSKEQTSVSGAQKGRKQGGSQSSYVLQTEELVANKQQRETKNSHQNKGHYQNVVEVREEHSSKVQTSLCPAHQDKLQHGSKDIFSTQDELLVYNKNQHQTKNLNQDQQHGRKANKISYQSSSTEERRLHYGENGVQKDVSQSSIYSQTEEKAQGKSQKQITIPSQEQEHSQKANKISYQSSSTEERRLHYGENGVQKDVSQRSIYSQTEKLVAGKSQIQAPNPKQEPWHGENAKGESGQSTNREQDLLSHEQKGRHQHGSHGGLDIVIIEQEDDSDRHLAQHLNNDRNPLFT
